Measured values taken from patent US9133224B2, “Macrocyclic kinase inhibitors” (OSI Pharmaceuticals, LLC, priority 2010, dated 2015).
Where two headings read alike, the source gives them in different places.

Tests used:
[1] = 22-membered ring
[2] = molecular target: T1, GST-tagged full-length FAK enzyme (PTK2) (Homo sapiens, UniProt Q05397); test: Biochemical Omnia Assay (FAK)
T1 construct: GST-tagged full-length FAK enzyme (PTK2, Invitrogen PV4085); GST; purchased Invitrogen PV4085
Summary of the method: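 GST-tagged full-length human FAK, added at 50 nM to compound and a peptide (40 μM)/ATP (200 μM) solution, stated before mixing. Omnia peptide phosphorylation followed continuously by fluorescence increase. Duplicate points; IC50 by nonlinear fitting of linear progress-curve slopes.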

FAK = molecular target: T2, FAK (Homo sapiens, UniProt Q05397); test: Cell-based capture ELISA for inhibition of FAK autophosphorylation [pY397] in U87MG cells
T2 construct: endogenous in cells; host or cells: U87MG glioblastoma cells (ATCC HTB-14)
T2 sequence (Q05397 whole entry): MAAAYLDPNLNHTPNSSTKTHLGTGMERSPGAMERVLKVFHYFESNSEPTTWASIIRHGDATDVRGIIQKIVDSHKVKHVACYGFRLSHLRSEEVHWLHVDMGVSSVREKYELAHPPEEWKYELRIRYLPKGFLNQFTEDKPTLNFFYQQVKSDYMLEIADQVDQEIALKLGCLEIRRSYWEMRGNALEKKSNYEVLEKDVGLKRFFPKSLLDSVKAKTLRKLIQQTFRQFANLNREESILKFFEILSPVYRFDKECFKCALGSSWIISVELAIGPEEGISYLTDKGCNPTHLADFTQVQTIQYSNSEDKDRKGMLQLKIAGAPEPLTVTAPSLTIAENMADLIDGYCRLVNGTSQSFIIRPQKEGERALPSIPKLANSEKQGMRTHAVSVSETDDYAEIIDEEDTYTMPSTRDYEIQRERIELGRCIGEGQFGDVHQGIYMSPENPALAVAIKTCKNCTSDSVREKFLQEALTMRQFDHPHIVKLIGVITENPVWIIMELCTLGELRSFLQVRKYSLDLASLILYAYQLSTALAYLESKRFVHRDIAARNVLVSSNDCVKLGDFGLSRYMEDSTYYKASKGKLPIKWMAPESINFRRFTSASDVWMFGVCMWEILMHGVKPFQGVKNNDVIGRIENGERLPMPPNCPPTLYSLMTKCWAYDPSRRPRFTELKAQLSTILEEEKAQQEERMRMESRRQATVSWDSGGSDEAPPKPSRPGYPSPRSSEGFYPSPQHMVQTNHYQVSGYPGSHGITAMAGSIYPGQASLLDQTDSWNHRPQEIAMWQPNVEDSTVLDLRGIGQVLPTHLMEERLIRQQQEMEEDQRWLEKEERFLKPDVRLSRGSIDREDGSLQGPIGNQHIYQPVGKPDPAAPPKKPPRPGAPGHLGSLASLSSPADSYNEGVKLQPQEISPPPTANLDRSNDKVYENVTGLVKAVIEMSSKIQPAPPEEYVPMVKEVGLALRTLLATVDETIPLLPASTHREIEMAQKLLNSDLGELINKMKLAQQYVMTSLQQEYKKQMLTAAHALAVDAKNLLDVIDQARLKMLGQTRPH
Summary of the method: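 U87MG cells on fibronectin-coated plates treated with compounds for 2 h at 37° C in complete growth medium (0.6% DMSO final). Lysates captured on anti-FAK ELISA plates; pY397 detected with phospho-specific antibody, HRP and chromogen at 450 nm. Variant run with 50% (v/v) mouse or human plasma.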

[3] = from CCC[CH2][Sn]([CH2]CCC)([CH2]CCC)[c]1cn(CCCOP(=O)(CCC)Cc2ccc(Nc3ncc(C(F)(F)F)c(Nc4ccc(Br)nc4C(=O)NC)n3)c(OC)c2)nn1, cc_pd bond
[4] = from CCC[CH2][Sn]([CH2]CCC)([CH2]CCC)[c]1cn(CCCOP(=O)(Cc2ccc(Nc3ncc(C(F)(F)F)c(Nc4ccc(Br)nc4C(=O)NC)n3)c(OC)c2)OCC)nn1, cc_pd bond, 2 steps
[5] = mean IC50, [ATP] = 50uM, read-out: FAK Activity Biochemical OMNIA, [ATP] = 50uM
[6] = 50% (v/v) human plasma, mean IC50, read-out: FAK Activity Mechanistic (U87MG) HP
[7] = no plasma present, mean IC50, read-out: FAK Activity Mechanistic (U87MG) NP
[8] = 50% (v/v) mouse plasma, mean IC50, read-out: FAK Activity Mechanistic (U87MG) MP

T1 sequence (Q05397 whole entry): as above

| Structure (SMILES) | IC50 [2, 5] [nM] | IC50 (FAK; [6]) [nM] | IC50 (FAK; [7]) [nM] | IC50 [2] [nM] | also measured |
| --- | --- | --- | --- | --- | --- |
| CCC[P@@]1(=O)Cc2ccc(c(OC)c2)Nc2ncc(C(F)(F)F)c(n2)Nc2ccc(nc2C(=O)NC)-c2cn(nn2)CCCO1 (mixture of isomers) |  |  |  |  | ring closure, isolated yield [1, 3]: 19% |
| CCC[P@]1(=O)Cc2ccc(c(OC)c2)Nc2ncc(C(F)(F)F)c(n2)Nc2ccc(nc2C(=O)NC)-c2cnn(c2)CCCO1 (mixture of isomers) |  |  |  |  | ring closure, isolated yield ([1]; from CCCP(=O)(O)Cc1ccc(Nc2ncc(C(F)(F)F)c(Nc3ccc(-c4cnn(CCCO)c4)nc3C(=O)NC)n2)c(OC)c1, ester bond, DCC, 2 steps): 55% |
| CCCP1(=O)Cc2ccc(c(OC)c2)Nc2ncc(C(F)(F)F)c(n2)Nc2ccc(nc2C(=O)NC)-c2cn(nn2)CCCO1 (racemic) |  |  |  |  | ring closure, yield of all isomers [3]: 19% |
| CCOP1(=O)Cc2ccc(c(OC)c2)Nc2ncc(C(F)(F)F)c(n2)Nc2ccc(nc2C(=O)NC)-c2cnn(c2)CC2(COC2)CO1 (racemic) |  |  |  |  | ring closure, yield of all isomers (from CCOP(=O)(Cc1ccc(Nc2ncc(C(F)(F)F)c(Nc3ccc(Br)nc3C(=O)NC)n2)c(OC)c1)OCC1(Cn2cc(B3OC(C)(C)C(C)(C)O3)cn2)COC1, cc_pd bond, Pd(dppf)Cl2·CH2Cl2, K2CO3, 1,4-dioxane, 13.5 mM, 100.0 °C, 0.5 h): 43% |
| CCOP1(=O)Cc2ccc(c(OC)c2)Nc2ncc(C(F)(F)F)c(n2)Nc2ccc(nc2C(=O)NC)-c2cn(nn2)CCCO1 (single isomer, unassigned) [Example 64A] | < 400 | < 400 | < 400 |  | ring closure, yield of all isomers [4]: 24% |
| CCOP1(=O)Cc2ccc(c(OC)c2)Nc2ncc(C(F)(F)F)c(n2)Nc2ccc(cc2C(=O)N(CC)CC)-c2cnn(c2)CCCO1 (racemic) |  |  |  |  | ring closure, yield of all isomers (from CCOP(=O)(O)Cc1ccc(Nc2ncc(C(F)(F)F)c(Nc3ccc(-c4cnn(CCCO)c4)cc3C(=O)N(CC)CC)n2)c(OC)c1, ester bond, PyBOP/DIPEA, 1,2-dichloroethane, 1.03 mM, 25.0 °C, 24.0 h): 43% |
| CCCP1(=O)Cc2ccc(c(OC)c2)Nc2ncc(C(F)(F)F)c(n2)Nc2ccc(nc2C(=O)NC)-c2cnn(c2)CCCO1 (racemic) |  |  |  |  | ring closure, yield of all isomers (from CCCP(=O)(O)Cc1ccc(Nc2ncc(C(F)(F)F)c(Nc3ccc(-c4cnn(CCCO)c4)nc3C(=O)NC)n2)c(OC)c1, ester bond, DCC, pyridine, 15.0 mM, 115.0 °C, 5.5 h, 2 steps): 55% |
| CCO[P@]1(=O)Cc2ccc(c(OC)c2)Nc2ncc(C(F)(F)F)c(n2)Nc2ccc(cc2C(=O)N(CC)CC)-c2cnn(c2)CCCO1 (mixture of isomers) |  |  |  |  | ring closure, isolated yield ([1]; from CCOP(=O)(O)Cc1ccc(Nc2ncc(C(F)(F)F)c(Nc3ccc(-c4cnn(CCCO)c4)cc3C(=O)N(CC)CC)n2)c(OC)c1, ester bond, PyBOP/DIEA, DCE/DMF, 1.03 mM, 25.0 °C): 43% |
| CCOP1(=O)Cc2ccc(c(OC)c2)Nc2ncc(C(F)(F)F)c(n2)Nc2ccc(nc2C(=O)NC)-c2cc(C(=O)OC)n(c2)CCCO1 (racemic) [Example 38] |  | < 400 | < 400 | < 400 | ring closure, yield of all isomers (from CCOP(=O)(O)Cc1ccc(Nc2ncc(C(F)(F)F)c(Nc3ccc(-c4cc(C(=O)OC)n(CCCO)c4)nc3C(=O)NC)n2)c(OC)c1, ester bond, PyBOP/DIPEA, 1,2-dichloroethane, 1.53 mM, 25.0 °C, 24.0 h): 58%; IC50 (FAK; [8]): 400 to 4000 nM |
| CCO[P@]1(=O)Cc2ccc(c(OC)c2)Nc2ncc(C(F)(F)F)c(n2)Nc2ccc(nc2C(=O)NC)-c2cc(C(=O)OC)n(c2)CCCO1 (mixture of isomers) |  |  |  |  | ring closure, isolated yield ([1]; from CCOP(=O)(O)Cc1ccc(Nc2ncc(C(F)(F)F)c(Nc3ccc(-c4cc(C(=O)OC)n(CCCO)c4)nc3C(=O)NC)n2)c(OC)c1, ester bond, PyBOP/DIEA, DCE, 1.53 mM, 25.0 °C): 58% |
| CCO[P@@]1(=O)Cc2ccc(c(OC)c2)Nc2ncc(C(F)(F)F)c(n2)Nc2ccc(c3c2C(=O)N(C)C3)-c2cnn(c2)CCCO1 |  |  |  |  | ring closure, yield of all isomers (from CCOP(=O)(O)Cc1ccc(Nc2ncc(C(F)(F)F)c(Nc3ccc(-c4cnn(CCCO)c4)c4c3C(=O)N(C)C4)n2)c(OC)c1, ester bond, PyBOP/DIPEA, 1,2-dichloroethane, 1.17 mM, 72.0 h): 14.1% |
| CCOP1(=O)Cc2ccc(c(OC)c2)Nc2ncc(C(F)(F)F)c(n2)Nc2ccc(cc2C(=O)NC)-c2cnn(c2)CCCCO1 (racemic) [Example 14] | < 400 | < 400 | < 400 |  |  |
| CCCP1(=O)Cc2ccc(c(OC)c2)Nc2ncc(C(F)(F)F)c(n2)Nc2ccc(cc2C(=O)NC)-c2cnn(c2)CCCO1 (racemic) [Example 66] | < 400 | < 400 | < 400 |  | IC50 (FAK; [8]): < 400 nM |
| CNC(=O)c1nc2ccc1Nc1nc(ncc1C(F)(F)F)Nc1ccc(cc1OC)CP(C)(=O)OCCCn1cc-2cn1 (single isomer, unassigned) [Example 61A] | < 400 | < 400 | < 400 |  | IC50 (FAK; [8]): < 400 nM |
| CCOP1(=O)Cc2ccc(cc2)Nc2ncc(C(F)(F)F)c(n2)Nc2ccc(cc2C(=O)NC)-c2cnn(c2)CCCO1 (racemic) [Example 8] |  | < 400 | < 400 | < 400 |  |
| CCOP1(=O)Cc2cc(OC)c(cc2Cl)Nc2ncc(C(F)(F)F)c(n2)Nc2ccc(nc2C(=O)NC)-c2cnn(c2)CC2(COC2)CO1 (racemic) [Example 57] |  | 400 to 4000 | < 400 | < 400 |  |
| CCOP1(=O)Cc2ccc(c(OC)c2)Nc2ncc(C(F)(F)F)c(n2)Nc2ccc(nc2C(=O)NC)-c2cn(nc2C)CCCO1 (single isomer, unassigned) [Example 34A] | < 400 | 400 to 4000 | < 400 |  |  |
| CCNC(=O)c1cc2ccc1Nc1nc(ncc1C(F)(F)F)Nc1ccc(cc1OC)CP(=O)(OCC)OCCCn1cc-2cn1 (racemic) [Example 9] |  | < 400 | < 400 | < 400 | IC50 (FAK; [8]): 400 to 4000 nM |
| CCOP1(=O)Cc2ccc(c(Cl)c2)Nc2ncc(C(F)(F)F)c(n2)Nc2ccc(nc2C(=O)NC)-c2cnn(c2)CCCO1 (single isomer, unassigned) [Example 24A] | < 400 | > 4000 | < 400 |  | IC50 (FAK; [8]): 400 to 4000 nM |
| CCOP1(=O)Cc2ccc(c(OC)c2)Nc2cc(c(C(F)(F)F)cn2)Nc2ccc(nc2C(=O)NC)-c2cnn(c2)CCCO1 (racemic) [Example 36] |  | < 400 | < 400 | < 400 | IC50 (FAK; [8]): 400 to 4000 nM |
| CCOP1(=O)Cc2ccc(cc2)Nc2ncc(C(F)(F)F)c(n2)Nc2ccc(nc2C(=O)NC)-c2cnn(c2)CC(C)CO1 (mixture of isomers) [Example 21] | < 400 | < 400 | < 400 |  |  |
| CCNC(=O)c1cc2ccc1Nc1nc(ncc1C(F)(F)F)Nc1ccc(cc1)CP(=O)(OCC)OCCCn1cc-2cn1 (racemic) [Example 10] |  | > 4000 | 400 to 4000 | < 400 |  |
| CCOP1(=O)Cc2ccc(c(OC)c2)Nc2ncc(C(F)(F)F)c(n2)Nc2ccc(nc2C(=O)NC)-c2cn(nc2C)CC2(COC2)CO1 (single isomer, unassigned) [Example 60A] |  | < 400 | < 400 | < 400 |  |
| CCOP1(=O)Cc2ccc(c(OC)c2)Nc2ncc(C(F)(F)F)c(n2)Nc2ccc(nc2C(=O)NC)-c2cn(nc2C)CCCO1 (racemic) [Example 34] | < 400 | < 400 | < 400 |  |  |
| CCOP1(=O)Cc2ccc(c(OC)c2Cl)Nc2ncc(C(F)(F)F)c(n2)Nc2ccc(nc2C(=O)NC)-c2cnn(c2)CCCO1 (single isomer, unassigned) [Example 54A] |  | > 4000 | 400 to 4000 | < 400 |  |
| CCOP1(=O)Cc2ccc(c(OC)c2)Nc2ncc(C(F)(F)F)c(n2)Nc2ccc(c(C)c2C(=O)NC)-c2cnn(c2)CCCO1 (racemic) [Example 29] |  |  | 400 to 4000 | < 400 | IC50 (FAK; [8]): > 4000 nM |
| CCO[P@@]1(=O)Cc2ccc(c(OC)c2)Nc2ncc(C(F)(F)F)c(n2)Nc2ccc(nc2C(=O)NC)-c2cn(nn2)CCCO1 |  |  |  |  | ring closure, isolated yield [1, 4]: 24% |
| CCOP1(=O)Cc2ccc(c(OC)c2)Nc2ncc(C(F)(F)F)c(n2)Nc2ccc(nc2C(=O)NC)-c2cnn(c2)C(C)(C)CCO1 (single isomer, unassigned) [Example 50A] | < 400 | 400 to 4000 | < 400 |  |  |
| CCOP1(=O)Cc2ccc(c(OC)c2)Nc2ncc(C(F)(F)F)c(n2)Nc2ccc(nc2C(=O)NC)-c2cnn(c2C)CCCO1 (racemic) [Example 35] | < 400 | < 400 | < 400 |  |  |
| CCNC(=O)c1nc2ccc1Nc1nc(ncc1C(F)(F)F)Nc1ccc(cc1OC)CP(=O)(OCC)OCC1(COC1)Cn1cc-2cn1 (single isomer, unassigned) [Example 45A] |  | 400 to 4000 | < 400 | < 400 |  |
